Where a name gives a salt, the structure may show the parent alone. One block for each compound: values may come before it.
Key:
[1] = system: MCF7/ADR cells; assay: sulforhodamine B cytotoxicity assay, 72 hour drug exposure, MCF7/ADR; type: cell-based
[2] = system: LEWIS LUNG cells; assay: sulforhodamine B cytotoxicity assay, 72 hour drug exposure, Lewis lung; type: cell-based
[3] = system: CAKI 1 cells; assay: sulforhodamine B cytotoxicity assay, 72 hour drug exposure, CAKI 1; type: cell-based
[4] = system: P388/ADR cells; assay: sulforhodamine B cytotoxicity assay, 72 hour drug exposure, P388/ADR; type: cell-based; details: Mus musculus
Procedure: (§1) These studies were performed using a sulforrhodamine B assay (see Monks et al., J. Natl. Cancer Inst. (U.S.) 83:757 ([…])). Compounds were dissolved in ethanol. Results from these studies, presented in the following tables, are expressed as Gl50 values, that is, concentration of a drug (micromolar) required to inhibit growth of fifty percent of the cells.

[5] = system: HT 29 cells; assay: sulforhodamine B cytotoxicity assay, 72 hour drug exposure, HT 29; type: cell-based
[6] = system: OVCAR 3 cells; assay: sulforhodamine B cytotoxicity assay, 72 hour drug exposure, OVCAR 3; type: cell-based
[7] = system: SKMEL 28 cells; assay: sulforhodamine B cytotoxicity assay, 72 hour drug exposure, SKMEL 28; type: cell-based
[8] = system: MCF7 cells; assay: sulforhodamine B cytotoxicity assay, 72 hour drug exposure, MCF7; type: cell-based
[9] = system: P388 cells; assay: sulforhodamine B cytotoxicity assay, 72 hour drug exposure, P388; type: cell-based; details: Mus musculus
Procedure: as §1

[10] = system: mice; assay: in vivo toxicity after i.v. injection in mice
[11] = system: A549 cells; assay: sulforhodamine B cytotoxicity assay, 72 hour drug exposure, A549; type: cell-based
[12] = system: RPMI 7666 cells; assay: sulforhodamine B cytotoxicity assay, 72 hour drug exposure, RPMI 7666; type: cell-based
Procedure: as §1

[13] = system: C3H10T1/2 cells; assay: sulforhodamine B cytotoxicity assay, 72 hour drug exposure, C3H10T1/2; type: cell-based; details: Mus musculus, C3H 10T1/2
Procedure: as §1

[14] = system: U937 cells; assay: sulforhodamine B cytotoxicity assay, 72 hour drug exposure, U937; type: cell-based; details: Homo sapiens, U-937
Procedure: as §1

[15] = system: A549 cells; assay: in vitro sensitivity at different drug exposure times, A549; type: cell-based; details: Homo sapiens
Procedure: as §1

[16] = system: MCF 7/ADR cells; assay: in vitro sensitivity at different drug exposure times, MCF 7/ADR; type: cell-based; details: Homo sapiens, NCI/ADR-RES
Procedure: as §1

[17] = Homo sapiens, NCI/ADR-RES, 72 h

SMILES: CCCCCCCCCCCCC/C=C/[C@@H](O)[C@H](CO)NCCCCCC [N-Hexyl Sphingosine, n-hexyl sphingosine]
- GI50 [1, 17]: 5.57 ± 1.17 µM
- GI50 ([1]; listed as N-C6 Sphingosine): 4.69 ± 0.1 µM
- GI50 ([2]; Lewis lung carcinoma, 72 h): 4.9 ± 0.1 µM
- GI50 ([2]; listed as N-C6 Sphingosine): 4.61 ± 0.04 µM
- GI50 ([3]; Homo sapiens, CAKI-1, 72 h): 6.84 ± 3.62 µM
- GI50 ([3]; listed as N-C6 Sphingosine): 4.28 ± 0.04 µM
- GI50 [4]: 2.61 ± 1.7 µM
- GI50 ([5]; Homo sapiens, HT-29, 72 h): 5.2 ± 0.1 µM
- GI50 ([5]; listed as N-C6 Sphingosine): 5.03 ± 0.06 µM
- GI50 ([6]; Homo sapiens, OVCAR-3, 72 h): 4.99 ± 0.05 µM
- GI50 ([7]; Homo sapiens, SK-MEL-28, 72 h): 4.94 ± 0.66 µM
- GI50 ([8]; Homo sapiens, MCF7, 72 h): 4.8 ± 0.1 µM
- GI50 ([8]; listed as N-C6 Sphingosine): 4.74 ± 0.09 µM
- GI50 [9]: 2.59 ± 0.3 µM
- Number of Animals Dead ([10]; 12.5 mg/kg): 0/2
- Number of Animals Dead ([10]; 25 mg/kg): 0/2
- Number of Animals Dead ([10]; 50 mg/kg): 0/2
- Number of Animals Dead ([10]; 100 mg/kg): 2/2
- GI50 ([11]; Homo sapiens, A549, 72 h): 4.9 ± 0.1 µM

SMILES: CCCCCCCCCCCCC/C=C/[C@@H](O)[C@H](CO[Si](C)(C)C(C)(C)C)NC(=O)CCCCC [1-TBDMS C6-Ceramide, 1-TBDMS C6-Cer]
- GI50 [12]: > 200 µM
- GI50 ([2]; Lewis lung carcinoma): > 200 µM
- GI50 [13]: > 161 µM
- GI50 [14]: > 200 µM
- GI50 ([11]; Homo sapiens): > 200 µM

SMILES: CCCCCCCCCCCCC/C=C/[C@@H](O[Si](C)(C)C(C)(C)C)[C@H](CO)NC(=O)CCCCC [3-TBDMS C6-Ceramide, 3-TBDMS C6-Cer]
- GI50 [12]: > 200 µM
- GI50 ([2]; Lewis lung carcinoma): > 200 µM
- GI50 [13]: > 200 µM
- GI50 [14]: > 200 µM
- GI50 ([11]; Homo sapiens): > 200 µM

SMILES: CCCCCCCCCCCCC/C=C/[C@@H](O)[C@H](CO)NCCCCCCCCCC
- GI50 [1, 17]: 6.19 ± 0.43 µM
- GI50 ([2]; Lewis lung carcinoma, 72 h): 6.71 ± 1.04 µM
- GI50 ([3]; Homo sapiens, CAKI-1, 72 h): 6.18 ± 0.01 µM
- GI50 ([5]; Homo sapiens, HT-29, 72 h): 14.5 ± 0.14 µM
- GI50 ([6]; Homo sapiens, OVCAR-3, 72 h): 12.5 ± 0.85 µM
- GI50 ([7]; Homo sapiens, SK-MEL-28, 72 h): 13 µM
- GI50 ([8]; Homo sapiens, MCF7, 72 h): 5.13 ± 0.01 µM
- GI50 ([11]; Homo sapiens, A549, 72 h): 4.99 ± 0.08 µM

SMILES: CCCCCCCCCCCCCC(O)C(O)[C@@H](O)[C@H](CO)NC(=O)CCCCC (some centres unmarked) [4,5-Diol C6-Ceramide, 4,5-diol C6-Cer]
- GI50 [1, 17]: 28.3 ± 1.1 µM
- GI50 ([2]; Mus musculus, Lewis lung carcinoma, 72 h): 15.2 µM
- GI50 ([5]; Homo sapiens, HT-29, 72 h): 14.6 ± 0.4 µM
- GI50 ([6]; Homo sapiens, OVCAR-3, 72 h): 38.2 ± 2.3 µM
- GI50 ([8]; Homo sapiens, MCF7, 72 h): 20.7 ± 0.1 µM
- GI50 ([11]; Homo sapiens, A549, 72 h): 25.1 ± 0.3 µM

- GI50 ([15]; 1 hour pulse): 92.9 ± 1.3 µM
- GI50 ([15]; 4 hour pulse): 44.1 ± 1.3 µM
- GI50 ([15]; 8 hour pulse): 35.3 ± 2.5 µM
- GI50 ([15]; 24 hour pulse): 7.2 ± 0.2 µM
- GI50 ([15]; 48 hour pulse): 4.35 ± 0.1 µM
- GI50 ([15]; 72 hour continuous exposure): 5.1 ± 0.1 µM
SMILES: CCCCCCCCCCCCC/C=C/[C@@H](O)[C@H](COC(C)=O)NC(=O)CCCCC [1-Acetate C6-Ceramide, 1-acetate, C6-ceramide]
- GI50 [12]: 9 ± 2 µM
- GI50 ([2]; Lewis lung carcinoma, 72 h): 8.5 ± 0.4 µM
- GI50 [14]: 11.3 ± 1 µM
- GI50 ([11]; Homo sapiens, A549, 72 h): 12.7 ± 7.6 µM
- GI50 ([16]; 1 hour pulse): > 100 µM
- GI50 ([16]; 4 hour pulse): 59.5 ± 1.4 µM
- GI50 ([16]; 8 hour pulse): 42.7 ± 1.2 µM
- GI50 ([16]; 24 hour pulse): 19.5 ± 0.8 µM
- GI50 ([16]; 48 hour pulse): 15.6 ± 0.9 µM
- GI50 ([16]; 72 hour continuous exposure): 16.7 ± 1.7 µM

SMILES: CCCCCCCCCCCCC/C=C/[C@@H](O)[C@@H](N)CO [Sphingosine, reference compound]
- GI50 ([1]; Homo sapiens, NCI/ADR-RES): 19.8 µM
- GI50 ([2]; Lewis lung carcinoma): 12.2 ± 0.1 µM
- GI50 ([3]; Homo sapiens): 39.7 ± 0.8 µM
- GI50 ([5]; Homo sapiens): 19.3 ± 0.1 µM
- GI50 ([6]; Homo sapiens): 44.6 ± 0.9 µM
- GI50 ([7]; Homo sapiens, SK-MEL-28): 15.6 ± 1 µM
- GI50 ([8]; Homo sapiens): 20.4 ± 0.4 µM
- GI50 ([11]; Homo sapiens): 20.2 ± 0.8 µM

SMILES: CCCCCCCCCCCCC/C=C/[C@@H](O)[C@H](CO)NCCCCCCCC [N-C8 Sphingosine HCl Salt]
- GI50 ([1]; HCl Salt): 4.82 ± 0.18 µM
- GI50 ([2]; HCl Salt): 4.82 ± 0.18 µM
- GI50 ([3]; HCl Salt): 4.47 ± 0.01 µM
- GI50 ([5]; HCl Salt): 5.78 µM
- GI50 ([6]; HCl Salt): 5.23 ± 0.01 µM
- GI50 ([7]; HCl Salt): 4.95 ± 0.02 µM
- GI50 ([8]; HCl Salt): 4.9 ± 0.02 µM
- GI50 ([11]; HCl Salt): 4.97 ± 0.19 µM

- GI50 ([15]; 1 hour pulse): > 100 µM
- GI50 ([15]; 4 hour pulse): > 100 µM
- GI50 ([15]; 8 hour pulse): 40.2 ± 2.5 µM
- GI50 ([15]; 24 hour pulse): 8.4 ± 0.7 µM
- GI50 ([15]; 48 hour pulse): 5.2 ± 0.3 µM
- GI50 ([15]; 72 hour continuous exposure): 5.6 ± 0.2 µM
SMILES: CCCCCCCCCCCCC/C=C/[C@@H](O)[C@H](COC(=O)C(C)C)NC(=O)CCCCC [1-Isobutyrate C6-Ceramide, 1-isobutyrate, C6-ceramide]
- GI50 [1, 17]: 37.8 ± 4.67 µM
- GI50 ([11]; Homo sapiens, A549, 72 h): 7.9 ± 3.5 µM
- GI50 ([16]; 1 hour pulse): > 100 µM
- GI50 ([16]; 4 hour pulse): > 100 µM
- GI50 ([16]; 8 hour pulse): 52.3 ± 1.6 µM
- GI50 ([16]; 24 hour pulse): 22.7 ± 1.1 µM
- GI50 ([16]; 48 hour pulse): 18.7 ± 0.5 µM
- GI50 ([16]; 72 hour continuous exposure): 19.6 ± 1 µM
